These results are taken from BindingDB's records for doi:10.1016/j.bmc.2009.11.062 (Medical University of Lublin, 2010).

This assay is described as follows: Agonist activity beta2-adrenergic receptor in rat ventricular myocytes assessed as cell contraction following electrical stimulation by optical edge tracking method using photodiode array.

With `CC[C@H](Cc1ccc(O)cc1)NC[C@H](O)c1cc(O)cc(O)c1`, the EC50 (as a rule, the concentration that produces a half-maximal response) came out at 8550 nM. For the molecule `C[C@H](Cc1ccc2ccccc2c1)NC[C@H](O)c1cc(O)cc(O)c1`, the EC50 worked out at 133 nM. For the molecule `COc1ccc(C[C@@H](C)NC[C@H](O)c2cc(O)cc(O)c2)c2ccccc12`, the EC50 amounted to 16 nM.
